Assay results from US5462861A, “Method for improving enzyme activities with noble gases” (American Air Liquide, Chicago Research Center, priority 1993, dated 1995).
“Also recorded” adds a separate entry of the source.

Key:
[1] = system: lyase enzymes; assay: Lyases, effects for the class; assay type: biochemical
Protocol: (§1) Solution preparation: Optimized w/v solutions are prepared by diluting the enzyme (units/ml) and the substrate (μg/ml) in appropriate buffer (optimized pH and molarity for enzymes). The solutions are used for gas experiments at once to avoid loss of activity. Various enzyme and substrate concentrations and inhibitors may be employed. Physical parameters are varied as required.
(§2) Preparation of samples: Cuvets are filled with 2 ml of substrate solution by means of a gas-tight syringe. Gas-tight serum vials are filled with enzyme and solvent. Sufficient gas is consecutively bubbled in the cuvets and serum vials, with a 1-hr wait between injections to maximize equilibration of gas. […] The amount of gas used has been measured sufficient to saturate the solution required.
(§3) Spectrophotometric time-drive, reaction rate, and kinetic analyses: cuvets and serum vials are saturated with gas 40 minutes before the run. […] Changes in the rate or final equilibrium of the reaction versus ambient air are recorded. […]
(§4) In a complete experiment, an enzyme at optimal pH and buffering salt concentration is reacted with 5 substrate concentrations in solution with noble gas at 1 atm. […] The reaction is monitored colorimetrically in a scanning spectrophotometer in real time, and the signals are treated mathematically to obtain rate and yield differences. […]

[2] = system: Aspartate aminotransferase; assay: Aspartate aminotransferase activity under gas; assay type: biochemical; details: for effect on aspartate aminotransferase: FIG. 30; for effect: minus = inhibition
Protocol: as §1
(§5) Preparation of samples: Cuvets are filled with 2 ml of substrate solution by means of a gas-tight syringe. Gas-tight serum vials are filled with enzyme and solvent. Sufficient gas is consecutively bubbled in the cuvets and serum vials, with a 1-hr wait between injections to maximize equilibration of gas. All syringes and dead spaces are purged before filling with the appropriate gas. The amount of gas used has been measured sufficient to saturate the solution required.
(§6) Spectrophotometric time-drive, reaction rate, and kinetic analyses: cuvets and serum vials are saturated with gas 40 minutes before the run. A gas-filled syringe is used to retrieve 0.5 ml of enzyme solution to avoid air contact. The 0.5 ml syringe injections of enzyme are made simultaneously to effect a common starting time to for the samples. 7 gases (air, O2, N2, Ne, Ar, Kr, Xe) are run at various temperatures each (from 0° to 60° ). Changes in the rate or final equilibrium of the reaction versus ambient air are recorded. Comparison is also made with added oxygen, and with deoxygenation. Some samples are also prepared under pressure.

[3] = system: β-D-Glucosidase; assay: High pressure experiments, β-D-glucosidase; assay type: biochemical, Almonds
Protocol: Experiments were conducted in pressure cells pressurized with additional test gas after solution was already saturated, at 2 atmospheres or at 3 atmospheres in real-time, or after pressurizing in a 1-liter cylinder for 1 hour or ~24 hours at 30.6 atmospheres and at 100 atmospheres.
Rinse the cylinders with copious quantities of D.I. H2 O. Then rinse the cylinders with the second enzyme solution (glucosidase). Place a 25 ml aliquot of enzyme solution into each of 2 disposable gas cylinders. Shake the enzyme in each cylinder for several minutes and then remove a 5 ml sample for Control B and Control C.
Remove cylinders to the dock, gassing with the appropriate gas; bring pressure slowly up to 30.6 atm. Let sit at the required pressure for 60 minutes. Slowly depressurize to 2 psi before bringing into the lab.
Bring the cylinders back to the dock and repressurize to 100 atm with the appropriate gas. Let sit at the required pressure for 60 minutes. Slowly depressurize to 2 psi before bringing into the lab.
Cuvettes were filled for the 2 atm experiments for both enzymes. Each cuvette was gassed 10×10 cc with the appropriate gas and refrigerated for 15 minutes prior to running. Serum vials were filled with 5 cc of the corresponding enzyme and gassed with 10×10 cc of the appropriate gas prior to running. The spectrophotometers were set up such that a continuous flow of each gas could be delivered to each spectro at all times. A 100 psimax gauge was installed to read the cuvette pressure and 2 on/off valves were installed so that the reference cell could be pressurized during the second replicate. A ball valve was installed between the cylinder/house line and the gauge so that gas flow could be controlled directly at the spectrophotometers. A check valve was placed in each line to ensure that a back pressure would not cause contamination of the house lines or the gas cylinders. The cuvettes retained the 2 needles during the entire run. One of the needles was attached to the gas line while the second was used for enzyme introduction and then plugged. Due to the bulky nature of the assembly it was impossible to use the installed doors of the spectrophotometers therefore they were removed. A 4-layer thick black felt cover was prepared for each spectro to minimize the amount of light entering the system.
While the cuvette was equilibrating to temperature in the spectrophotometer both needles remained in the cuvette with 10 cc syringes still attached. Prior to enzyme introduction one of the syringes was removed while the gas line was attached to the needle. A small flow of gas run through the line while this was done to ensure that there was no oxygen contamination. The needles remained above the liquid level. The second syringe was removed to allow constant flow through the cuvette. The enzyme was injected through the second needle using a 1 cc syringe. The needle was then plugged, the cuvette pressurized and the run begun.
A nonpressurized gas run using all four gases was done for each enzyme. Each cuvette was gassed with 10×10 cc of the corresponding gas and refrigerated for 15 minutes. The 2 needles used for gassing the cuvettes were removed when the cuvettes were placed into the spectrophotometer. Enzyme was introduced into the cuvettes using a 1 cc syringe with a 20G11/2 needle attached. The needle was placed into the cuvette through the silicone plug but not immersed into the liquid. This was to ensure that enzyme introduction into the cuvette was the same as for the pressurized gas run.
The same method as used in Trial 2 on Apr. 30, 1991 was used for this trial.
At 3 atmospheres pressure, the degree of enhancement observed was changed as follows: […]

[4] = system: Beta-D-glucosidase; assay: Beta-D-glucosidase activity under gas; assay type: biochemical; details: for effect: plus = enhancement
Protocol: as §1, §5, §6
(§7) In a complete experiment, an enzyme at optimal pH and buffering salt concentration is reacted with 5 substrate concentrations in solution with noble gas at 1 atm. […] Controls are also run after evacuation of solution by vacuum. The reaction is monitored colorimetrically in a scanning spectrophotometer in real time, and the signals are treated mathematically to obtain rate and yield differences. Sample numbers are constant and sufficient to ensure significance of results. All parameters are independently controlled and measured, and more complex experiments are occasionally carried out.

[5] = system: α-D-glucosidase; assay: α-D-glucosidase activity under gas; assay type: biochemical; details: for effect on α-glucosidase activity: 60° C., FIG. 43; for effect on α-D-glucosidase: FIG. 31
Protocol: (§8) Solution preparation: Optimized w/v solutions are prepared by diluting the enzyme (units/ml) and the substrate (μg/ml) in appropriate buffer (optimized pH and molarity for enzymes). The solutions are used for gas experiments at once to avoid loss of activity. Various enzyme and substrate concentrations and inhibitors may be employed. Physical parameters are varied as required. […] Gas-tight serum vials are filled with enzyme and solvent. Sufficient gas is consecutively bubbled in the cuvets and serum vials, with a 1-hr wait between injections to maximize equilibration of gas. All syringes and dead spaces are purged before filling with the appropriate gas. The amount of gas used has been measured sufficient to saturate the solution required. Spectrophotometric time-drive, reaction rate, and kinetic analyses: cuvets and serum vials are saturated with gas 40 minutes before the run. A gas-filled syringe is used to retrieve 0.5 ml of enzyme solution to avoid air contact. […] Changes in the rate or final equilibrium of the reaction versus ambient air are recorded. Comparison is also made with added oxygen, and with deoxygenation. Some samples are also prepared under pressure.

[6] = system: tyrosinase; assay: Oxygen addition experiment, tyrosinase; assay type: biochemical
Protocol: as §7

[7] = system: hydrolases; assay: Hydrolases, effects for the class; assay type: biochemical
Protocol: as §1, §2, §3, §4

[8] = system: transferase enzymes; assay: Transferases, effects for the class; assay type: biochemical
Protocol: as §1, §2, §3, §4

[9] = system: lactate dehydrogenase; assay: Lactate dehydrogenase activity under gas; assay type: biochemical; details: 10° C., FIG. 42
Protocol: as §8

[10] = at 3 atmospheres pressure (value after the > sign), minus = inhibition
[11] = before pressurization (value before the > sign)
[12] = after addition of oxygen up to a saturating amount to the gas-saturated solution
[13] = gas-saturated solution before addition of oxygen

Row | Compound | effect on lyases [1] | effect on aspartate aminotransferase [2] | effect [2] | degree of enhancement observed [3, 10] | degree of enhancement observed [3, 11] | effect [4] | effect on α-glucosidase activity [5] | effect on α-D-glucosidase [5] | inhibition [6, 12] | inhibition [6, 13] | effect on hydrolases [7] | effect on transferases [8] | effect on β-glucosidase ([3]; 30 atm. pressure, FIG. 38) | effect on β-glucosidase ([3]; 100 atm. pressure, 25° C., FIG. 37) | effect on lactate dehydrogenase [9] | enhancement ([4]; with the addition of different competing substrates)
1 | [Ar] [Ar, argon] | least such effect | inhibition | -17% | -13.2 | +1.0 | +16% | enhanced; also recorded: potent enhancer | enhancement | 12% | 82% | – | – | – | – | – | –
2 | [Kr] [Kr, krypton] | – | inhibition | -82% | -6.2 | +2.0 | +14% | inhibited | – | – | – | least such effect | largest inhibitory or effect | – | – | – | –
3 | N#N [N2, nitrogen, reference compound] | – | – | – | -5.0 | 0 | – | enhanced | enhancement | zero inhibition | 84% | – | – | inhibitory effect | inhibitory effect | – | –
4 | [Ne] [Ne, neon] | – | – | -12% | -12.5 | +1.0 | – | – | enhancement | – | – | – | lowest inhibitory or enhancing effect | – | – | inhibiting | –
5 | [Xe] [Xe, xenon] | largest enhancing effect | inhibition | -17% | -15.7 | +3.1 | +40% | enhanced | – | 50% | 85% | largest enhancing effect | – | – | – | enhancing | up to 200%
